# Laboratory results: US10064865B2, “Composition comprising phosphodiesterase type 5 inhibitor for inhibiting apoptosis of nerve cells” (ARIBIO INC., priority 2012, dated 2018)
# Test system: PARP
# Assay: Example 2 immunohistochemistry: PARP-immunoreactive cells
# Type: in vivo, Sprague-Dawley (SD) rats
# Settings: for Numbers of neurons: PARP+: 1 mg/kg s.c. once a day for 14 days, 29 days after neuron apoptosis
# Experimental: The induction of neuron apoptosis was carried out by damaging the right hemisphere of the brain of animals. Specifically, animals were anesthetized with 2 or 3% isoflurane in the mixture of 70% N2O and 28.5% O2, and were maintained with 1 to 1.5% isoflurane in the mixture of 70% N2O and 28.5% O2. After that the temporalis muscle was bisected and reflected through an incision made midway between the eye and the eardrum canal. The proximal MCA was exposed through a subtemporal craniectomy by microdental drills without removing the zygomatic arch and without transecting the facial nerve. […] Mortality was less than 5%. For sham control, all procedures were performed in the same way, with the exception of the occlusion of the MCA.
# After deparaffinized of prepared […] histological paraffin sections, citrate buffer antigen (epitope) retrieval pretreatment were conducted as previously (Shi S R et al., J Histochem Cytochem. 41:1599-604(1993)). Briefly, pre-heat water bath with staining dish containing 10 mM citrate buffers (pH 6.0) until temperature reaches 95-100° C. Immerse slides in the staining dish and place the lid loosely on the staining dish. Incubate for 20 minutes and turn off the water bath. Place the staining dish at room temperature and allow the slides to cool for 20 minutes. After epitope retrievals, sections were immunostained using avidin-biotin complex (ABC) methods for caspase-3 and PARP. Endogenous peroxidase activity was blocked by incubated in methanol and 0.3% H2O2 for 30 minutes, and non-specific binding of immunoglobulin was blocked with normal horse serum blocking solution (Vector Lab., Burlingame, Calif., USA. Dilution 1:100) for 1 hr in humidity chamber. Primary antiserum were treated for overnight at 4° C. in humidity chamber, and then incubated with biotinylated universal secondary antibody (Vector Lab., Dilution 1:50) and ABC reagents (Vectastain Elite ABC Kit, Vector Lab., Dilution 1:50) for 1 hr at room temperature in humidity chamber. Finally, reacted with peroxidae substrate kit (Vector Lab.) for 3 min at room temperature. All sections were rinse in 0.01M PBS for 3 times, between steps. The neurons occupied by over 10% of immunoreactivities, the density, of each antiserum for caspase-3 and PARP were regarded as positive, and the mean numbers of caspase-3 and PARPimmunoreactive cells dispersed in the mm^2 of ipsilateral peri-infarct/defect cerebral cortex were counted using an automated image analysis process as establish methods (Lee et al., 2010; Song et al., 2012), respectively. The histopathologist was blinded to the group distribution when performing the analysis.
# All data were expressed as mean±standard deviation (S.D.) of ten rats. Multiple comparison tests for different dose groups were conducted. Variance homogeneity was examined using the Levene test (Levene A, Clin Otalary, 1981; 6:145-51). […] Statistical analyses were conducted using SPSS for Windows (Release 14K, SPSS Inc., USA; Ludbrook, Clin Exp Pharmacol Physiol, 1997; 24:294-6). In addition, the percent changes as compared with neuron apoptosis control and mirodenafil treated rats were calculated to help the understanding of the efficacy of test substances as follow Equation 6 and 7. Percentage Changes as Compared with Sham Control (%)=[((Data of neuron apoptosis control−Data of sham control rat)/Data of sham control rats)×100] [EQUATION 6] Percentage Changes as Compared with neuron apoptosis Control (%)=[((Data of test material treated rats−Data of neuron apoptosis control rats)/Data of neuron apoptosis control rats)×100] [EQUATION 7]
smiles,measurement,setting,value
"CCCOc1ccc(S(=O)(=O)N2CCN(CCO)CC2)cc1-c1nc2c(CCC)cn(CC)c2c(=O)[nH]1 [Mirodenafil, mirodenafil]","numbers of PARP-immunoreactive neurons at 29 days, change as compared with neuron apoptosis control",1 mg/kg from 24 hrs after surgery,−53.92%
same,"numbers of PARP-immunoreactive neurons at 29 days, change as compared with neuron apoptosis control",1 mg/kg from 72 hrs after surgery,−39.72%
same,"numbers of PARP-immunoreactive neurons at 29 days, change as compared with neuron apoptosis control",1 mg/kg from 168 hrs after surgery,−15.68%
same,Numbers of neurons: PARP+,start 24 hrs after operation,36.14 ± 5.32^ab cells/mm^2 of cerebral cortex
same,Numbers of neurons: PARP+,start 72 hrs after operation,47.28 ± 5.36^ab cells/mm^2 of cerebral cortex
same,Numbers of neurons: PARP+,start 168 hrs after operation,66.13 ± 9.61^ac cells/mm^2 of cerebral cortex
